Where two headings read alike, the source gives them in different places.
Experiments:
HIV-1 = HIV-1 single-round infectious luciferase reporter virus (pseudotype) assay in HeLa CD4 CCR5 cells; assay type: cell-based
How it was run: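 HeLa CD4 CCR5 cells (5×10^4/well, DMEM + 10% FBS) were treated with compound (final <10 μM) and infected with single-round luciferase reporter virus made in 293 cells, at MOI ~0.01. Luciferase was read 72 h post infection. EC50 came from 10-concentration percent-inhibition curves fitted to a four-parameter logistic model.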

[1] = Metabolic stability in pooled human liver microsomes (HLM); settings: pooled human liver microsomes, 3 μM drug; Low/Intermediate/High
Procedure: Metabolic Stability Studies of compounds in Liver Microsomes. The metabolic stability of compounds were investigated in pooled liver microsomes from humans. The human liver microsomes were obtained from BD Gentest (Lot #16, Woburn, Mass.) with a protein concentration of 20 mg/ml and a total cytochrome P450 (CYP) concentration of 0.55 nmol/mg protein. A stock solution of drug was prepared in acetonitrile at 1 mM. […] The incubation media consisted of potassium phosphate buffer (0.1 M, pH 7.4), liver microsomes (final concentration 0.9 mg/ml), magnesium chloride (0.033 mM), and a NADPH-regenerating system. […] The test compound was pre-incubated in the media for 2 min. The reaction was initiated by the addition of the cofactors. The incubation was carried out at 37° C. for 10 min. The reaction was terminated by drawing an aliquot of 100 μL from the incubation and adding into 200 μL of acetonitrile containing a reference compound as an […] analytical standard. Following vortex-mixing and centrifugation, an aliquot of 10 μL of the supernatant was analyzed by LC/MS.
GUIDELINES can be used to categorized test substances as low, intermediate or highly cleared compounds.
(§1) For accuracy, the determined measure of viral inhibition is an EC50; but the minimum plasma concentrations which should be maintained in a patient is generally believed to be at least four or five fold higher. […] Lower is better. • 4) Estimating potential exposure in man by measuring parameters such as AUC and rate of clearance by oral and iv dosing in rats. High exposure and low clearance was desired.
The stability of compounds were also evaluated to determine metabolic stability when incubated in in vitro preparations of human liver microsomes (HLM). This is one commonly used predictive system for evaluating the potential for human metabolism and projecting clearance rates in man. Compounds with low clearance rates were most desireable.

HeLa cells = assay: Cytotoxicity assay in HeLa cells (MTT dye reduction, CC50)
Procedure: • Virus production—Human embryonic Kidney cell line, 293, propagated in Dulbecco's Modified Eagle Medium (Life Technologies, Gaithersburg, Md.) containing 10% fetal Bovine serum (FBS, Sigma, St. Louis, Mo.). • Virus infection—Human epithelial cell line, HeLa, expressing the HIV-1 receptors CD4 and CCR^5 was propagated in Dulbecco's Modified Eagle Medium (Life Technologies, Gaithersburg, Md.) containing 10% fetal Bovine serum (FBS, Sigma, St. Louis, Mo.) and supplemented with 0.2 mg/mL Geneticin (Life Technologies, Gaithersburg, Md.) and 0.4 mg/mL Zeocin (Invitrogen, Carlsbad, Calif.). […] Transfections were performed using lipofectAMINE PLUS reagent as described by the manufacturer (Life Technologies, Gaithersburg, Md.). Experiment • 1. Compound was added to HeLa CD4 CCR5 cells plated in 96 well plates at a cell density of 5×10^4 cells per well in 100 μl Dulbecco's Modified Eagle Medium containing 10% fetal Bovine serum at a concentration of […]. • 2. 100 μl of single-round infectious reporter virus in Dulbecco's Modified Eagle Medium was then added to the plated cells and compound at an approximate multiplicity of infection (MOI) of 0.01, resulting in a final volume of 200 μl per well and a final compound concentration of <10 μM. • 3. Samples were harvested 72 h after infection. • 4. Viral infection was monitored by measuring luciferase expression from viral DNA in the infected cells using a luciferase reporter gene assay kit (Roche Molecular Biochemicals, Indianapolis, Ind.). Infected cell supernatants were removed and 50 μl of Dulbecco's Modified Eagle Medium (without phenol red) and 50 μl of luciferase assay reagent reconstituted as described by the manufacturer (Roche Molecular Biochemicals, Indianapolis, Ind.) was added per well. Luciferase activity was then quantified by measuring luminescence using a Wallac microbeta scintillation counter. • 5. […] An EC50 provides a method for comparing the antiviral potency of the compounds of this invention. The effective concentration for fifty percent inhibition (EC50) was calculated with the Microsoft Excel Xlfit curve fitting software. For each compound, curves were generated from percent inhibition calculated at 10 different concentrations by using a four paramenter logistic model (model 205). Table 1 is the key for the data in Tables 2-4. Cytoxicity assays were conducted with the same HeLa using methodology well known in the art.
as §1

[2] = Human immunodeficiency virus 1, HeLa-CD4/CCR5, read-out: EC50 Group from TABLE 1, HeLa CD4 CCR5 cells, single-round infectious luciferase reporter virus
[3] = Human immunodeficiency virus 1, HeLa-CD4/CCR5, read-out: EC50 category, HIV-1 single-round reporter virus assay, category 1/2/3 per Table A1 key
[4] = cytotoxicity, Yes = CC50 above 100 uM, No = not
[5] = Human immunodeficiency virus 1, HeLa-CD4/CCR5, read-out: EC50 Group from Table 1, Table 2-1, HeLa CD4 CCR5 cells, single-round luciferase reporter virus
[6] = HeLa cells, six days with drug, MTT
[7] = Human immunodeficiency virus 1, HeLa-CD4/CCR5, read-out: EC50 category, initial pseudotype assay, key in Table A1
[8] = Human immunodeficiency virus 1, HeLa-CD4/CCR5, read-out: EC50 Group from Table 1, Table 4, HeLa CD4 CCR5 cells, single-round luciferase reporter virus

| Structure (SMILES) | EC50 (HIV-1; [2]) | EC50 (HIV-1; [3]) | HLM predicted human clearance class [1] | CC50 > 100 uM (HeLa cells; [4]) | EC50 (HIV-1; [5]) | CC50 > 100 uM (HeLa cells; [6]) | EC50 (HIV-1; [7]) | EC50 (HIV-1; [8]) |
| --- | --- | --- | --- | --- | --- | --- | --- | --- |
| CN(C)C(=O)c1cc(-c2ncc(F)c3c(C(=O)C(=O)N4CCN(C(=O)c5ccccc5)CC4)c[nH]c23)n[nH]1 [Example 212] | < 1 µM | < 0.0002 µM | Low (0-0.100) | – | – | – | – | – |
| COc1cnc(-n2ccnn2)c2[nH]cc(C(=O)C(=O)N3CCN(C(=O)c4ccccc4)[C@H](C)C3)c12 [Example 255, (R)-1-benzoyl-2-methyl-4-[(4-methoxy-7-(1,2,3-triazol-1-yl)-6-azaindol-3-yl)-oxoacetyl]piperazine] | – | < 0.0002 µM | Intermediate (0.101-0.200) | Yes | < 1 µM | – | – | – |
| COc1cnc(-c2cncnc2)c2[nH]cc(C(=O)C(=O)N3CCN(C(=O)c4ccccc4)CC3)c12 [Example 40, 1-benzoyl-4-[(4-methoxy-7-(pyfimidin-5-yl)-6-azaindol-3-yl)-oxoacetyl]piperazine] | < 1 µM | 0.0002 to 1 µM | – | No | – | – | – | – |
| O=C(C(=O)N1CCN(C(=O)c2ccccc2)CC1)c1c[nH]c2c(-c3cnc[nH]3)ncc(F)c12 [Example 148] | < 1 µM | 0.0002 to 1 µM | – | Yes | – | – | – | – |
| CNC(=O)c1cc(-c2ncc(F)c3c(C(=O)C(=O)N4CCN(C(=O)c5ccccc5)CC4)c[nH]c23)n[nH]1 [Example 211] | < 1 µM | < 0.0002 µM | Intermediate (0.101-0.200) | – | – | – | – | – |
| COc1cnc(-n2nccn2)c2[nH]cc(C(=O)C(=O)N3CCN(C(=O)c4ccccc4)[C@H](C)C3)c12 [Example 256, (R)-1-benzoyl-2-methyl-4-[(4-methoxy-7-(1,2,3-triazol-2-yl)-6-azaindol-3-yl)-oxoacetyl]piperazine] | – | – | – | – | < 1 µM | Yes | 0.0002 to 1 µM | – |
| Cn1ncnc1-c1ncc(F)c2c(C(=O)C(=O)N3CCN(C(=O)c4ccccc4)CC3)c[nH]c12 [Example 301] | < 1 µM | 0.0002 to 1 µM | – | Yes | – | – | – | – |
| COc1cnc(-c2ccn(C)n2)c2[nH]cc(C(=O)C(=O)N3CCN(C(=O)c4ccccc4)CC3)c12 [Example 22, 1-benzoyl-4-[(4-methoxy-7-(1-methyl-pyrazol-3-yl)-6-azaindol-3-yl)-oxoacetyl]piperazine] | < 1 µM | < 0.0002 µM | – | No | – | – | – | – |
| C[C@@H]1CN(C(=O)c2ccccc2)CCN1C(=O)C(=O)c1c[nH]c2c(-c3nccs3)ncc(F)c12 [Example 37, 1-benzoyl-3-(R)-methyl-4-[(4-fluoro-7-(thiazol-2-yl)-6-azaindol-3-yl)-oxoacetyl]piperazine] | < 1 µM | < 0.0002 µM | – | No | – | – | – | – |
| O=C(C(=O)N1CCN(C(=O)c2ccccc2)CC1)c1c[nH]c2c(-n3ccnn3)ccnc12 [Example 206, 1-(4-benzoyl-piperazin-1-yl)-2-(7-[1,2,3]triazol-1-yl-1H-pyrrolo[3,2-b]pyridin-3-yl)-ethane-1,2-dione] | – | 0.0002 to 1 µM | – | Yes | – | – | – | < 1 µM |
| COc1cnc(-n2cccn2)c2[nH]cc(C(=O)C(=O)N3CCN(C(=O)c4ccccc4)CC3)c12 [Example 189, 1-benzoyl-4-[(4-methoxy-7-(1-pyrazolyl)-6-azaindol-3-yl)-oxoacetyl]piperazine] | < 1 µM | 0.0002 to 1 µM | – | Yes | – | – | – | – |
| O=C(C(=O)N1CCN(C(=O)c2ccccc2)CC1)c1c[nH]c2c(-n3nccn3)ncc(F)c12 [Example 217] | < 1 µM | – | – | – | – | Yes | 0.0002 to 1 µM | – |
| COc1cnc(-n2cc(C)cn2)c2[nH]cc(C(=O)C(=O)N3CCN(C(=O)c4ccccc4)CC3)c12 [Example 191, 1-benzoyl-4-[(4-methoxy-7-(4-methylpyrazol-1-yl)-6-azaindol-3-yl)-oxoacetyl]piperazine] | < 1 µM | 0.0002 to 1 µM | – | Yes | – | – | – | – |
| CNC(=O)c1ccc(-c2ncc(OC)c3c(C(=O)C(=O)N4CCN(C(=O)c5ccccc5)CC4)c[nH]c23)o1 [Example 94, 1-benzoyl-4-[(4-methoxy-7-(2-methylaminocarbonyl-furan-5-yl)-6-azaindol-3-yl)-oxoacetyl]piperazine] | < 1 µM | < 0.0002 µM | – | Yes | – | – | – | – |
| O=C(C(=O)N1CCN(C(=O)c2ccccc2)CC1)c1c[nH]c2c(-n3cccn3)ccnc12 [Example 208, 1-(4-Benzoyl-piperazin-1-yl)-2-(7-pyrazol-1-yl-1H-pyrrolo[3,2-b]pyridin-3-yl)-ethane-1,2-dione] | – | 0.0002 to 1 µM | – | Yes | – | – | – | < 1 µM |
| CNC(=O)c1ccn(-c2ncc(OC)c3c(C(=O)C(=O)N4CCN(C(=O)c5ccccc5)CC4)c[nH]c23)n1 [Example 276, 1-benzoyl-4-[(4-methoxy-7-(3-methylaminocarbonyl-pyrazol-1-yl)-6-azaindol-3-yl)-oxoacetyl]piperazine] | < 1 µM | < 0.0002 µM | – | Yes | – | – | – | – |
| COc1cnc(-c2cccn2C)c2[nH]cc(C(=O)C(=O)N3CCN(C(=O)c4ccccc4)CC3)c12 [Example 28, 1-benzoyl-4-[(4-methoxy-7-(11-methyl-pyrrol-2-yl)-6-azaindol-3-yl)oxoacetyl]piperazine] | < 1 µM | > 1 µM | – | No | – | – | – | – |
| O=C(C(=O)N1CCN(C(=O)c2ccccc2)CC1)c1c[nH]c2c(-c3cc[nH]n3)ncc(F)c12 [Example 38, 1-benzoyl-4-[(4-fluoro-7-(pyrazol-3-yl)-6-azaindol-3-yl)-oxoacetyl]piperazine] | < 1 µM | < 0.0002 µM | Low (0-0.100) | – | – | – | – | – |
| O=C(C(=O)N1CCN(C(=O)c2ccccc2)CC1)c1c[nH]c2c(-c3cnccn3)ncc(F)c12 [Example 95, 1-benzoyl-4-[(4-fluoro-7-(pyrazin-2-yl)-6-azaindol-3-yl)-oxoacetyl]piperazine] | < 1 µM | < 0.0002 µM | Intermediate (0.101-0.200) | – | – | – | – | – |
| O=C(C(=O)N1CCN(C(=O)c2ccccc2)CC1)c1c[nH]c2c(-n3cccc3)ncc(F)c12 [Example 220] | < 1 µM | 0.0002 to 1 µM | – | Yes | – | – | – | – |
| COc1ncc(-c2ncc(OC)c3c(C(=O)C(=O)N4CCN(C(=O)c5ccccc5)CC4)c[nH]c23)c(OC)n1 [Example 13, 1-benzoyl-4-[(4-methoxy-7-(2,4-dimethoxy-pyrimidin-5-yl)-6-azaindol-3-yl)-oxoacetyl]piperazine] | < 1 µM | 0.0002 to 1 µM | – | Yes | – | – | – | – |
